Measured values published in patent US9169223B2, “Functionalised antifouling compounds and use thereof” (Agency for Science, Technology and Research, priority 2010, dated 2015).
Values after ≈ are worked out from the molar mass of the structure shown.

Columns and labels:
[1] = Observation on standing (note in characterisation); format: physicochemical; conditions: HRMS consistent with free alcohol
Description: To a round bottomed flask containing DMAP (2 mg) was added a solution of 2-(4-hydroxymethyl)phenyl-1-(piperidin-1-yl)hexanone (30 mg, 0.10 mmol) in dry dichloromethane (2 mL). To the resulting mixture was added dry NEt3 (208 μL, 1.5 mmol) followed by acetic anhydride (100 μL, 1.0 mmol). The resulting mixture was allowed to stir for 3 hours. After this time, the reaction mixture was washed with saturated NaHCO3, water and then brine and the organic phase was dried (Na2SO4) and concentrated under reduced pressure. The title compound was obtained as a colourless oil (20 mg, 60%) following purification by flash column chromatography (50% EtOAc in hexane, Rf=0.7). ^1H NMR (400 MHz, CDCl3) δ 0.86 (t, J=7 Hz, 3H); 1.0-1.2 (2×m, 2H); 1.2-1.5 (multiple signals, 8H); 1.68 (m, 1H); 4.53 (m+s, 4H); 3.33 (m, 1H), 3.39 (m, 1H); 3.49 (m, 1H); 3.60 (m, 1H); 3.70 (t, J=7 Hz, 1H); 5.07 (s, 2H); 7.72 (m, 4H). ^13C NMR (75 MHz, CDCl3) δ14.01, 21.08, 22.72, 24.57, 25.60, 26.20, 30.09, 34.77, 43.20, 46.66, 48.38, 66.07, 128.03, 128.58, 134.24, 141.02, 171.09, 171.17.
To a round bottomed flask containing DMAP (2 mg) was added a solution of 2-(4-hydroxymethyl)phenyl-1-(piperidin-1-yl)hexanone (30 mg, 0.10 mmol) in dry CH2Cl2 (2 mL). To the resulting mixture was added dry NEt3 ([…], 1.5 mmol) followed by acetic anhydride (100 μL, 1.0 mmol). The resulting mixture was allowed to stir for 3 hours. […]

[2] = system: stage II naupliar larvae of the barnacle Amphibalanus amphitrite; experiment: Toxicity assay with barnacle nauplii; format: in vivo; conditions: Amphibalanus amphitrite (barnacle), stage II naupliar larvae, in vivo
Description: (§1) Biological assays were conducted with larval barnacles. Barnacles are dominant and tenacious members of marine fouling communities, and often serve as a substrate for less resistant organisms. Therefore, historically they have been used as a model organism for antifouling studies. To determine the biological response of larvae to test compounds, two bioassays were performed: settlement (using settlement stage cyprids), and toxicity (using nauplii). Procedures followed methods standard in the field, which were first described by Rittschof et al. (1992).
(§2) Stock solutions of each compound were made at 50 mg/ml. Pure compounds were diluted in DMSO and sonicated. Stock solutions were stored at −20° C. in 4 ml amber screw cap vials until use. For bioassays, a small amount of stock solution was diluted in 1 μm filtered seawater (in a glass scintillation vial). The solution was then sonicated for 10 minutes. To obtain the desired concentration range, serial dilutions of the test solution were made. As control, a serial dilution of the equivalent amounts of DMSO in seawater was used.
Toxicity assays employed stage II naupliar larvae of the barnacle Amphibalanus amphitrite (previously Balanus amphitrite: Pitombo, 2004). Assay procedures were modified from Rittschof et al. (1992). Adult A. amphitrite were collected from inter-tidal areas near the Kranji mangrove, Singapore. Larval culture was based on Rittschof et al. (1984). Following collection, nauplii were concentrated for use in bioassays by placing a fiber optic light source at one side of the container, and pipetting from the resulting dense cloud of nauplii.
In order to determine LD50 values for each compound, compounds were tested over a range of concentrations between 0-50 μg/ml. For each assay, each compound at each concentration was tested in triplicate with a single batch of nauplii. The overall assay was conducted twice, using two different batches of nauplii. Two controls were run along with each assay (in triplicate): filtered seawater only, and DMSO at […] (since DMSO was used as a solvent for test compounds, this concentration is equivalent to the concentration of DMSO in the highest test compound concentration).
For assays, approximately 20 nauplii (in 50 μl filtered seawater) were added to 1 ml test solution or control, in a 2 ml glass vial (La Pha Pack® PN 11-14-0544). Assays were run for 22-24 hours at 25-27° C. After this time, living and dead nauplii were counted using a Bogorov tray. Nauplii that were approaching death were scored as dead. Data for all assays was combined and LD50 was calculated (where possible) using a probit analysis (Libermann, 1983). If LD50 could not be calculated using probit analysis, values were extrapolated based on plotted data.

barnacle cyprids = experiment: Settlement assay with barnacle cyprids; format: in vivo, Amphibalanus amphitrite
Description: as §1, with “nauplii).” for “nauplii). Procedures followed methods standard in the field, which were first described by Rittschof et al. (1992).”
as §2
Nauplii were cultured as described above, and then reared at 25° C. on an algal mixture of 1:1 v/v of Tetraselmis suecica and Chaetoceros muelleri (approximately density 5×10^5 cells per ml). Under these conditions, nauplii typically metamorphose to cyprids in 5 days. Cyprids were aged at 4° C. for 2 days.
Settlement assays were conducted in 7 ml neutral glass vials (Samco® T103/V1; 34×23 mm diameter). For assays, each solution was made at twice the desired final concentration; 0.5 ml of this solution was transferred to vials. To each vial, cyprids were added by transferring 0.5 ml filtered seawater containing 20-40 aged cyprids. As in toxicity assays: each compound at each concentration was run in triplicate with cyprids from a single batch; two controls (filtered seawater and DMSO) were run along with each assays; and the overall assay was conducted twice, using two different batches of cyprids.
Assays were conducted for 24 hours, after which time the number of settled cyprids, the number of free swimming (unsettled) cyprids, and the number of dead cyprids were counted for each vial. Both metamorphosed, juvenile barnacles and cyprids that had committed to settlement (glued themselves to the vial), but had not yet metamorphosed, were counted as ‘settled’. Data was expressed as percent settlement. […] If ED50 could not be calculated using probit analysis, values were extrapolated based on plotted data.

## CCCCC(C(=O)N1CCCCC1)c1ccc(COC(C)=O)cc1 (stereo not shown) [Compound 16.3, 2-(4-acetoxymethyl)phenyl-1-(piperidin-1-yl)hexanone]
[1]
  stability on standing: hydrolyses on standing
[2]
  LD50: >50 µg/mL
Barnacle cyprids; Amphibalanus amphitrite, 24 h, anti-settlement, barnacle cyprids, 24 hours, concentration causing 50% reduction in settlement vs controls, read-out: ED50 (the source's name)
  IC50: 6.35 µg/mL (≈ 19.2 µM)
Barnacle cyprids; therapeutic ratio, LD50 (nauplii) / ED50 (cyprids)
  TR (LD50/ED50): >7.87
